Experimental data: US10821078B2, “Nanostructure enhanced targeting (NSET) of inflammatory cells” (Northwestern University, priority 2016, dated 2020)
Read-outs that look alike come from different tables or passages of the source.

Legend:
[1] = Organ-level biodistribution of ICG-loaded nanostructures by IVIS NIR fluorescence imaging; format: in vivo, mouse; conditions: 24 h after I.V. injection, C57BL/6 mice
From the text: Nanomaterials have been widely used to deliver therapeutic agents in vivo, and their tissue distribution can either limit or enhance such applications. ICG-loaded MC, PS and FM were therefore assembled at a 33:1 molar ratio of copolymer:dye, and their biodistributions were compared to control injections of free form ICG and PBS in naïve C57BL/6 mice. Liver, spleen, kidneys, lung and heart were harvested and investigated with an IVIS optical imaging system. Following I.V. injection, ICG usually has a half-life of less than 10 minutes primarily due to removal from circulation in the liver.
The ICG-loaded MC, PS and FM were prepared with the optimal molar ratio of PEG-bl-PPS:ICG (33:1) and suspended in PBS. Free ICG (50 μg/mL in PBS solution) served as a control. C57BL/6 mice (n=6) were injected intravenously with 150 μl of free ICG, MC, PS and FM (7.5 μg of loaded ICG in each sample). At different time points (1 h, 24 h, and 48 h post-injection), whole-body NIR fluorescence imaging was performed using an IVIS Lumina (Center for Advanced Molecular Imaging, Northwestern University) with λexc=745 nm, λem=810 nm, exposure time=2 s and f/stop=2. For organ NIR fluorescence imaging, animals were euthanized by carbon dioxide and liver, spleen, kidney, heart, and lung were harvested in petri dishes and imaged by the IVIS Lumina with the same parameters as previous.

[2] = removal from circulation in the liver; cited from earlier work
[3] = system: macrophages (CD11b+F4/80+); conditions: mouse, in vivo
Description: Multi-color flow cytometry was performed to evaluate the uptake of NS of the present invention within cells of the innate and adaptive immune system. Mice were administered DyLight 650-labeled PS, MC and FM by tail vein injection. After different time points (1 h, 24 h, and 48 h), spleen, LN, liver, kidneys, and blood were collected and prepared into single cell suspensions for analysis (gating strategies shown in FIG. 11). For all organs evaluated, NS were predominantly taken up by phagocytic cells in the MPS (FIG. 3, FIG. 12).
C57BL/6 female mice (n=6-8), were injected intravenously with 150 μl of MC, PS, and FM with block copolymer concentration of 15 mg/mL. At different time points (1 h, 24 h, and 48 h post-injection), mice were anesthetized by intraperitoneal (i.p.) injection of a mixture of Ketamine/Xylazine followed by exsanguination. Blood was collected by retro-orbital puncture with BD Microtainer tubes and dipotassium EDTA (BD Biosciences). Serum was separated by centrifugation at 3000 rpm at 4° C. for 25 min. Fluorescence intensity of each nanostructure was normalized by diluting NS solutions in PBS and measuring the fluorescence using a spectrophotometer. The fluorescence of blood serum was measured with an excitation of 655 nm and the emission of 675 nm and correlated with the normalized standard curve for each DyLight 650-labeled NS. To prepare white blood cell suspensions, blood cells were washed twice with 10 ml PBS and treated 3× with ammonium-chloride-potassium (ACK) lysis buffer (Invivogen) to eliminate red blood cells. Liver, spleen, LN (popliteal, inguinal, axillary and brachial), and kidneys were harvested, gently dissociated and incubated in a 12-well plate with each well of 2 ml Collagenase D (2 mg/mL) for 45 min at 37° C. and 5% CO2. Single-cell suspensions were prepared by mechanical dissociation and passing through a 70 μm cell strainer. Anti-mouse CD16/CD32 was used to block FcRs and Zombie Aqua fixable viability dye was used to determine live/dead cells. For flow cytometric analysis, cells were stained using cocktails of fluorophore-conjugated anti-mouse antibodies: panel 1: CD45-FITC, CD3-APC/Cy7, CD4-PE, CD8α-PE/Cy7, NK1.1-PerCP-Cy5.5, CD19-Pacific Blue; panel 2: I-A/I-E-FITC, CD11c-Pacific Blue, CD8α-PE-Cy7, CD11b-PerCP-Cy5.5, CD45RB/B220-PE, Gr-1-APC-Cy7; and panel 3: F4/80-FITC, CD11c-Pacific Blue, CD11b-PerCP-Cy5.5, Ly6C-APC/Cy7, Ly6G-PE/Cy7. After washes, cells were fixed by IC cell fixation buffer (Biosciences). Flow cytometry was performed with FACSDiva on a LSRII flow cytometer (BD Biosciences) and data were analyzed with FlowJo software.

| Molecule | ICG fluorescence in organs [1] | half-life following I.V. injection [2] | decrease in uptake by liver macrophages on switching from MC to PS morphology [3] | percentage of macrophages nanostructure positive [3] | percentage of macrophages nanostructure positive ([3]; iv) |
| --- | --- | --- | --- | --- | --- |
| CC1(C)C(/C=C/C=C/C=C/C=C2\N(CCCCS(=O)(=O)O)c3ccc4ccccc4c3C2(C)C)=[N+](CCCCS(=O)(=O)[O-])c2ccc3ccccc3c21 [ICG, indocyanine green] | no observable fluorescence | less than 10 minutes | – | – | – |
| PEG17-bl-PPS30 | – | – | over 50% | 40% | 30%-40% |
| PEG44-bl-PPS45 [FM] | – | – | – | 25% | – |
| PEG45-bl-PPS20 [MC] | – | – | – | over 90% | – |
